Experimental data reported in PubChem BioAssay AID1918935 (Molecular Pharmacology Branch, DTP, NCI, 2023).
pIC50: −log10 of the molar value. Several values for one entry are separate records, joined by “and”; a condition that tells them apart may be missing. Equal values may be shown once.

System: 324938-238-R-J1-PDC complex spheroid viability
Experiment: Anticancer human tumor 324938-238-R-J1-PDC patient-derived bladder carcinoma cell line growth inhibition
Settings: for viability, T/C: stronger effect = lower value; active = viability on the fitted dose curve at most 10% of control; inactive = the rest
Source text: Multicellular complex tumor spheroid response to LSD1 Inhibitor Iadademstat in combination with a variety of drugs and investigational agents in selected tumor cell lines
The current study was undertaken to assess response to LSD1 inhibitors in combination with standard-of-care drugs and investigational agents in solid tumor complex spheroid models as well as in the K-562 leukemia. Complex spheroids include a stromal component modeled by human endothelial cells (HUVEC) and fibroblasts modeled by human mesenchymal stem cells (MSCs). The concentration ranges selected for each drug and investigational agent were based upon clinically achievable concentrations if the clinical Cmax of the agent was known.
Compounds. The drugs and investigational agents used in this study are listed on Table 1. All of the agents used, including staurosporine (NSC755774) and gemcitabine (NSC613327), were obtained from the Developmental Therapeutics Program, NCI. FDA-approved anticancer drugs are available from the NCI at http://dtp.nci.nih.gov/branches/dscb/oncology_drugset_explanation.html. Drugs and investigational agents were >95% pure by proton nuclear magnetic resonance (NMR) and liquid chromatography/mass spectrometry (LC/MS). Stock solutions were prepared at 400x in DMSO, stored at -70 degrees C, and diluted in fresh medium prior to their use. The final concentration of DMSO in cell culture wells never exceeded 0.25% (v/v). The FDA-approved anticancer drug set is available from the Developmental Therapeutics Program at https://dtp.cancer.gov/organization/dscb/obtaining/available_plates.htm. All drugs and investigational agents were tested over a range starting from a high concentration at or near the clinical Cmax and decreasing in half-log increments. If the clinical Cmax for an agent had not been determined, the highest concentration tested was 10 microM.
Cell Lines. The patient-derived cancer cell (PDC) lines: 292921-168-R-J2-PDC, K24384-001-R-PDC, and 521955-158-R2-J5-PDC pancreatic carcinomas, 556581-035-R-J1 ovarian carcinoma, 324938-238-R-J1-PDC, 855422-203-R-J1-PDC and 883617-216-R-J1-PDC urothelial bladder carcinomas, 743489-274-T-PDC renal cell carcinoma, 138582-R-J1 Merkel cell tumor, K60290-347-R-J1 and K57222-313-R-J1-PDC glioblastomas, 653999-131-R-J2-PDC, LG0703-F948-PDC, and 349418-098-R-PDC non-small cell lung carcinomas, 885512-296-R-J2-PDC, 171881-019-R-J1-PDC breast carcinomas and 186277-243-T-J2-PDC and 233499-124-R-J2-PDC colon carcinomas were obtained from the NCI Patient-Derived Models Repository (PDMR, https://pdmr.cancer.gov). The established cell lines NCI/ADR-RES (RRID:CVCL_14520 and OVCAR-5 (RRID:CVCL_1628) ovarian carcinomas, 786-O (RRID:CVCL_1051) and A498 (RRID:CVCL_A498) renal cell carcinoma, NCI-H211 (ATCC, cat. CRL-5824; RRID:CVCL_1529), NCI-H196 (ATCC, cat. CRL-5823, RRID:CVCL_1509), SW 1271 (ATCC, cat. CRL-2177, RRID:CVCL_1716) and NCI-H1876 (ATCC, cat. CRL-5902, RRID:CVCL_1503) small cell lung carcinomas, MDA-MB-231 (RRID:CVCL_0062) and MDA-MB-468 (RRID:CVCL_0419)breast carcinomas (10-12). Pooled donor human umbilical vein endothelial cells (HUVEC, Lonza, cat. CC-2519) and human mesenchymal stem cells (hMSC, Lonza, cat. PT-2501) were purchased from Lonza (Walkersville, MD).
Cell Culture. All cells were maintained in an incubator at 37 degrees C and 5% CO2 with 95% humidity. The PDC lines were cultured according to standard operating procedures established by the NCI PDMR (https://pdmr.cancer.gov). Briefly all PDCs were thawed and cultured in Matrigel-coated flasks prepared with a working solution of 1X Ham's F-12 nutrient mix, without supplementation (Invitrogen, Waltham, MA, cat. 11765054), 100 U/mL penicillin-streptomycin (Invitrogen, cat. 15140122), and 2.5% Matrigel (Corning Inc., Corning, NY, cat. 354248) for the first three passages. […]

[1] = curve of first compound, second compound 0.1 µM
[2] = curve of first compound, second compound 0.316 µM
[3] = curve of first compound, second compound 1 µM
[4] = curve of first compound, second compound 3.16 µM
[5] = curve of first compound, second compound 10 µM
[6] = second compound 0.1 µM, first compound 0.00316 µM
[7] = second compound 0.1 µM, first compound 0.01 µM
[8] = second compound 0.1 µM, first compound 0.0316 µM
[9] = second compound 0.1 µM, first compound 0.1 µM
[10] = second compound 0.316 µM, first compound 0.00316 µM
[11] = second compound 0.316 µM, first compound 0.01 µM
[12] = second compound 0.316 µM, first compound 0.0316 µM
[13] = second compound 0.316 µM, first compound 0.1 µM
[14] = second compound 1 µM, first compound 0.00316 µM
[15] = second compound 1 µM, first compound 0.01 µM
[16] = second compound 1 µM, first compound 0.0316 µM
[17] = second compound 1 µM, first compound 0.1 µM
[18] = second compound 3.16 µM, first compound 0.00316 µM
[19] = second compound 3.16 µM, first compound 0.01 µM
[20] = second compound 3.16 µM, first compound 0.0316 µM
[21] = second compound 3.16 µM, first compound 0.1 µM
[22] = second compound 10 µM, first compound 0.00316 µM
[23] = second compound 10 µM, first compound 0.01 µM
[24] = second compound 10 µM, first compound 0.0316 µM
[25] = second compound 10 µM, first compound 0.1 µM
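Also: spheroids also contain HUVEC and human MSCs and agents combined with iadademstat; spheroids exposed to agents for 7 days before readout.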

CC(C)CC(NC(=O)C(Cc1ccccc1)NC(=O)c1cnccn1)B(O)O (configuration not stated) + NC1CCC(NC2CC2c2ccccc2)CC1
active: viability, T/C [6] 0.06% | viability, T/C [7] 0.03% | viability, T/C [8] 0.03% | viability, T/C [9] 0.15% | viability, T/C [10] 0.14% | viability, T/C [11] 0.01% | viability, T/C [12] 0.02% | viability, T/C [13] 0.12% | viability, T/C [14] 0.1% | viability, T/C [15] 0.01% | viability, T/C [16] 0.73% | viability, T/C [17] 0.11% | viability, T/C [18] 0.43% | viability, T/C [19] 0.02% | viability, T/C [20] 0.03% | viability, T/C [21] 0.12% | viability, T/C [22] 0.12% | viability, T/C [23] 0.29% | viability, T/C [24] 0.1% | viability, T/C [25] 0.17%
9.36: pIC50 [5]
9.33: pIC50 [1]
inactive: viability, T/C (second compound 0.1 µM, first compound 0.000316 µM) 66.8% | viability, T/C (second compound 0.1 µM, first compound 0.001 µM) 18.7% | viability, T/C (second compound 0.316 µM, first compound 0.000316 µM) 64.9% | viability, T/C (second compound 0.316 µM, first compound 0.001 µM) 14.3% | viability, T/C (second compound 1 µM, first compound 0.000316 µM) 72.2% | viability, T/C (second compound 1 µM, first compound 0.001 µM) 12.1% | viability, T/C (second compound 3.16 µM, first compound 0.000316 µM) 65% | viability, T/C (second compound 3.16 µM, first compound 0.001 µM) 13.8% | viability, T/C (second compound 10 µM, first compound 0.000316 µM) 65% | viability, T/C (second compound 10 µM, first compound 0.001 µM) 10.8%
9.32: pIC50 [3]
9.35: pIC50 [2] | pIC50 [4]

COc1cc(Nc2ncc3c(n2)-c2ccc(Cl)cc2C(c2c(F)cccc2OC)=NC3)ccc1C(=O)O
7.67 and 7.86: pIC50 (curve of compound)
inactive: viability, T/C (compound 0.00316 µM) 91.2% and 90.6% | viability, T/C (compound 0.01 µM) 76.9% and 59% | viability, T/C (compound 0.0316 µM) 35.7% and 26.8% | viability, T/C (compound 0.1 µM) 19.6% and 15.6% | viability, T/C (compound 0.316 µM) 18.6% and 13.9% | viability, T/C (compound 1 µM) 15.3% and 14.3%

O=C(C=Cn1cnc(-c2cc(C(F)(F)F)cc(C(F)(F)F)c2)n1)NNc1cnccn1 + NC1CC1c1ccc(-c2cccc(O)c2)cc1
active: viability, T/C [9] 4.16% | viability, T/C (second compound 0.1 µM, first compound 0.316 µM) 3% | viability, T/C (second compound 0.1 µM, first compound 1 µM) 1.86% | viability, T/C [13] 5.76% | viability, T/C (second compound 0.316 µM, first compound 0.316 µM) 2.95% | viability, T/C (second compound 0.316 µM, first compound 1 µM) 1.73% | viability, T/C [17] 5.75% | viability, T/C (second compound 1 µM, first compound 0.316 µM) 2.87% | viability, T/C (second compound 1 µM, first compound 1 µM) 2.29% | viability, T/C [21] 6% | viability, T/C (second compound 3.16 µM, first compound 0.316 µM) 2.83% | viability, T/C (second compound 3.16 µM, first compound 1 µM) 2.25% | viability, T/C (second compound 10 µM, first compound 0.316 µM) 5.72% | viability, T/C (second compound 10 µM, first compound 1 µM) 2.7%
> 8.50: pIC50 [1] | pIC50 [2] | pIC50 [3] | pIC50 [4] | pIC50 [5]
inactive: viability, T/C [6] 46% | viability, T/C [7] 26.3% | viability, T/C [8] 14.1% | viability, T/C [10] 42.2% | viability, T/C [11] 27% | viability, T/C [12] 14.2% | viability, T/C [14] 36.1% | viability, T/C [15] 25.1% | viability, T/C [16] 13.8% | viability, T/C [18] 38.3% | viability, T/C [19] 27.7% | viability, T/C [20] 15.4% | viability, T/C [22] 42.1% | viability, T/C [23] 30.2% | viability, T/C [24] 20.4% | viability, T/C [25] 11.6%

CCc1c2c(nc3ccc(O)cc13)-c1cc3c(c(=O)n1C2)COC(=O)[C@]3(O)CC + NC1CC1c1ccc(-c2cccc(O)c2)cc1
active: viability, T/C (second compound 0.1 µM, first compound 0.000949 µM) 8.63% | viability, T/C (second compound 0.1 µM, first compound 0.003 µM) 8.28% | viability, T/C (second compound 0.1 µM, first compound 0.00949 µM) 6.38% | viability, T/C (second compound 0.1 µM, first compound 0.03 µM) 2.62% | viability, T/C (second compound 0.1 µM, first compound 0.0949 µM) 1.19% | viability, T/C (second compound 0.1 µM, first compound 0.3 µM) 0.47% | viability, T/C (second compound 0.316 µM, first compound 0.000949 µM) 7.65% | viability, T/C (second compound 0.316 µM, first compound 0.003 µM) 7.41% | viability, T/C (second compound 0.316 µM, first compound 0.00949 µM) 5.98% | viability, T/C (second compound 0.316 µM, first compound 0.03 µM) 2.79% | viability, T/C (second compound 0.316 µM, first compound 0.0949 µM) 0.46% | viability, T/C (second compound 0.316 µM, first compound 0.3 µM) 0.55% | viability, T/C (second compound 1 µM, first compound 0.000949 µM) 6.57% | viability, T/C (second compound 1 µM, first compound 0.003 µM) 8.14% | viability, T/C (second compound 1 µM, first compound 0.00949 µM) 6.37% | viability, T/C (second compound 1 µM, first compound 0.03 µM) 1.95% | viability, T/C (second compound 1 µM, first compound 0.0949 µM) 0.51% | viability, T/C (second compound 1 µM, first compound 0.3 µM) 0.15% | viability, T/C (second compound 3.16 µM, first compound 0.000949 µM) 6.75% | viability, T/C (second compound 3.16 µM, first compound 0.003 µM) 6.96% | viability, T/C (second compound 3.16 µM, first compound 0.00949 µM) 6.25% | viability, T/C (second compound 3.16 µM, first compound 0.03 µM) 2.46% | viability, T/C (second compound 3.16 µM, first compound 0.0949 µM) 0.53% | viability, T/C (second compound 3.16 µM, first compound 0.3 µM) 0.31% | viability, T/C (second compound 10 µM, first compound 0.003 µM) 9.76% | viability, T/C (second compound 10 µM, first compound 0.00949 µM) 7.12% | viability, T/C (second compound 10 µM, first compound 0.03 µM) 2.62% | viability, T/C (second compound 10 µM, first compound 0.0949 µM) 0.17% | viability, T/C (second compound 10 µM, first compound 0.3 µM) 0.23%
inactive: viability, T/C (second compound 10 µM, first compound 0.000949 µM) 10.5%
> 9.02: pIC50 [1] | pIC50 [2] | pIC50 [3] | pIC50 [4] | pIC50 [5]
